Test results taken from paper PMC8635623, “A click chemistry approach to pleuromutilin derivatives, evaluation of anti-MRSA activity and elucidation of binding mode by surface plasmon resonance and molecular docking” (Journal of Enzyme Inhibition and Medicinal Chemistry, 2021).
Converted amounts (≈) assume the structure as drawn.

Key:
Test in all cases: MIC/MBC by broth micro dilution
MRSA ATCC 43300 = format: cell-based, methicillin-resistant S. aureus; details: Staphylococcus aureus; for MIC: 37 °C, 24 h, read-out: MIC; for MBC: lowest concentration reducing viable counts by 99.9%
Description: (§1) All the synthesised 1,2,3-triazole linked pleuromutilin analogues were screened for in vitro antibacterial activities against methicillin-resistant S. aureus (ATCC 43300), S. aureus (ATCC 29213), and two clinical strains of S. aureus (AD3 and 144, isolated from Guangdong Province, China). The MICs and MBCs of the synthesised pleuromutilin derivatives along with pleuromutilin and tiamulin used as the reference antibacterial drugs, were determined by the broth micro dilution methods according to the Clinical and Laboratory Standards Institute (CLSI)[18].
(§2) The MIC of these novel pleuromutilin derivatives against methicillin-resistant S. aureus (ATCC 43300), S. aureus (ATCC 29213), S. aureus (AD3) and S. aureus (144) were determined by using pleuromutilin and tiamulin as positive control. MIC values were determined by the broth micro dilution methods in accordance with the Clinical and Laboratory Standards Institute (2012). Stock solutions of these compounds were dissolved in methanol to make a stock solution with a concentration of 1280 µg/mL. The working solutions (640 µg/mL) were obtained by diluting stock solutions in sterile Mueller-Hinton (MH) broth. The bacterial solution and solutions of these compounds with a final concentration of 0.016–32 µg/mL were distributed into 96-well plates, with a total volume of 200 µL. Three parallel experiments for each compound concentration. The plates were incubated at 37 °C for 24 h.
(§3) MBC values were determined according to CLSI (2003) and previously report with slightly modification[18]^,[28]^,[31]. After obtaining the MIC results, the 96-well plates were incubated at 37 °C for 24 h. 100 µL of the bacterial solution from the wells with no visible growth was inoculated on MH agar plates. The MH agar plates were incubated at 37 °C for colony count. The MBC was determined as the lowest concentration of compound, which reduces the viable counts for 99.9%.

S. aureus 144 = format: cell-based; details: Staphylococcus aureus, S. aureus 144 (clinical strain); for MIC: 37 °C, 24 h; for MBC: lowest concentration reducing viable counts by 99.9%
Description: as §1, §2, §3

S. aureus AD3 = format: cell-based; details: Staphylococcus aureus, S. aureus AD3 (clinical strain); for MIC: 37 °C, 24 h; for MBC: lowest concentration reducing viable counts by 99.9%
Description: as §1, §2, §3

S. aureus ATCC 29213 = format: cell-based; details: Staphylococcus aureus; for MIC: ATCC29213, 37 °C, 24 h; for MBC: ATCC29213, lowest concentration reducing viable counts by 99.9%
Description: as §1, §2, §3

Row | Compound | MIC (MRSA ATCC 43300) [µg/mL] | MBC (MRSA ATCC 43300) [µg/mL] | MIC (S. aureus 144) [µg/mL] | MBC (S. aureus 144) [µg/mL] | MIC (S. aureus AD3) [µg/mL] | MBC (S. aureus AD3) [µg/mL] | MIC (S. aureus ATCC 29213) [µg/mL] | MBC (S. aureus ATCC 29213) [µg/mL]
1 | C=C[C@]1(C)C[C@@H](OC(=O)Cn2cc(CN3CCN(C)CC3)nn2)[C@]2(C)[C@H](C)CC[C@]3(CCC(=O)[C@H]32)[C@@H](C)[C@@H]1O [Compound 48, 22-(2-(4-(4-Methyl-piperazin-1-yl)-methyl)-1H-1,2,3-triazol-1-yl)-22-deoxy pleuromutilin] | 8 (≈ 14.8 µM) | 16 (≈ 29.5 µM) | 32 (≈ 59.1 µM) | 32 (≈ 59.1 µM) | 16 (≈ 29.5 µM) | 32 (≈ 59.1 µM) | 16 (≈ 29.5 µM) | 32 (≈ 59.1 µM)
2 | C=C[C@]1(C)C[C@@H](OC(=O)Cn2cc(CN3CCN(c4ccccc4)CC3)nn2)[C@]2(C)[C@H](C)CC[C@]3(CCC(=O)[C@H]32)[C@@H](C)[C@@H]1O [Compound 49, 22-(2-(4-(4-Phenyl-piperazin-1-yl)-methyl)-1H-1,2,3-triazol-1-yl)-22-deoxy pleuromutilin] | 4 (≈ 6.62 µM) | 4 (≈ 6.62 µM) | 8 (≈ 13.2 µM) | 16 (≈ 26.5 µM) | 8 (≈ 13.2 µM) | 16 (≈ 26.5 µM) | 8 (≈ 13.2 µM) | 8 (≈ 13.2 µM)
3 | C=C[C@]1(C)C[C@@H](OC(=O)Cn2cc(CN3CCN(c4ccc(C)cc4)CC3)nn2)[C@]2(C)[C@H](C)CC[C@]3(CCC(=O)[C@H]32)[C@@H](C)[C@@H]1O [Compound 52, 22-(2-(4-(4-(p-Tolyl)-piperazin-1-yl)-methyl)-1H-1,2,3-triazol-1-yl)-22-deoxy pleuromutilin] | 4 (≈ 6.47 µM) | 8 (≈ 12.9 µM) | 8 (≈ 12.9 µM) | 16 (≈ 25.9 µM) | 8 (≈ 12.9 µM) | 32 (≈ 51.8 µM) | 8 (≈ 12.9 µM) | 8 (≈ 12.9 µM)
4 | C=C[C@]1(C)C[C@@H](OC(=O)Cn2cc(CN3CCN(c4cccc(F)c4)CC3)nn2)[C@]2(C)[C@H](C)CC[C@]3(CCC(=O)[C@H]32)[C@@H](C)[C@@H]1O [Compound 54, 22-(2-(4-(4-(3-Fluorophenyl)-piperazin-1-yl)-methyl)-1H-1,2,3-triazol-1-yl)-22-deoxy pleuromutilin] | 4 (≈ 6.43 µM) | 4 (≈ 6.43 µM) | 8 (≈ 12.9 µM) | 16 (≈ 25.7 µM) | 8 (≈ 12.9 µM) | 16 (≈ 25.7 µM) | 8 (≈ 12.9 µM) | 8 (≈ 12.9 µM)
5 | C=C[C@]1(C)C[C@@H](OC(=O)Cn2cc(CN3CCN(c4ccc(F)cc4)CC3)nn2)[C@]2(C)[C@H](C)CC[C@]3(CCC(=O)[C@H]32)[C@@H](C)[C@@H]1O [Compound 55, 22-(2-(4-(4-(4-Fluorophenyl)-piperazin-1-yl)-methyl)-1H-1,2,3-triazol-1-yl)-22-deoxy pleuromutilin] | 4 (≈ 6.43 µM) | 4 (≈ 6.43 µM) | 8 (≈ 12.9 µM) | 32 (≈ 51.5 µM) | 8 (≈ 12.9 µM) | 16 (≈ 25.7 µM) | 8 (≈ 12.9 µM) | 8 (≈ 12.9 µM)
6 | C=C[C@]1(C)C[C@@H](OC(=O)Cn2cc(CN3CCN(c4ccccc4Cl)CC3)nn2)[C@]2(C)[C@H](C)CC[C@]3(CCC(=O)[C@H]32)[C@@H](C)[C@@H]1O [Compound 56, 22-(2-(4-(4-(2-Chlorophenyl)-piperazin-1-yl)-methyl)-1H-1,2,3-triazol-1-yl)-22-deoxy pleuromutilin] | 4 (≈ 6.27 µM) | 4 (≈ 6.27 µM) | 16 (≈ 25.1 µM) | 32 (≈ 50.1 µM) | 16 (≈ 25.1 µM) | 32 (≈ 50.1 µM) | 8 (≈ 12.5 µM) | 32 (≈ 50.1 µM)
7 | C=C[C@]1(C)C[C@@H](OC(=O)Cn2cc(CN3CCN(c4cccc(Cl)c4)CC3)nn2)[C@]2(C)[C@H](C)CC[C@]3(CCC(=O)[C@H]32)[C@@H](C)[C@@H]1O [Compound 57, 22-(2-(4-(4-(3-Chlorophenyl)-piperazin-1-yl)-methyl)-1H-1,2,3-triazol-1-yl)-22-deoxy pleuromutilin] | 4 (≈ 6.27 µM) | 8 (≈ 12.5 µM) | 8 (≈ 12.5 µM) | 16 (≈ 25.1 µM) | 16 (≈ 25.1 µM) | 32 (≈ 50.1 µM) | 8 (≈ 12.5 µM) | 16 (≈ 25.1 µM)
